Laboratory results from the supplement of paper PMC11281043.
± gives the standard deviation of the averaged measurements.

Assays:
Conditions in all cases: exposure: 6-8 hpf to 5 dpf, scored at 6 dpf
[1] = system: Danio rerio embryo/larva; test: BMC general abnormality; higher = less potent
Method: (§1)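 Zebrafish embryos (with chorion) were exposed from 6-8 hpf to each PFAS (8-point half-log series, top concentration up to 100 uM, 0.4% DMSO, sealed plates, 26 C; n = 6 embryos per concentration), rinsed at 5 dpf and scored at 6 dpf by two blinded observers for mortality, hatching and malformations. Endpoint scores are the % of living larvae affected (dead larvae excluded; […]). Curves were fitted with tcpl (cutoff 16%), and the BMC is the concentration at a benchmark response of 21.6%.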

[2] = system: Danio rerio embryo/larva; test: max % larvae with pigmentation defects across tested concentrations; higher = more toxic
[3] = system: Danio rerio embryo/larva; test: max % larvae with edema across tested concentrations; higher = more toxic; extreme values may be limits of the assay
[4] = system: Danio rerio embryo/larva; test: max % larvae with tail defects across tested concentrations; higher = more toxic; extreme values may be limits of the assay
[5] = system: Danio rerio embryo/larva; test: max % larvae with blood pooling across tested concentrations; higher = more toxic; extreme values may be limits of the assay
[6] = system: Danio rerio embryo/larva; test: max % larvae generally abnormal across tested concentrations; higher = more toxic; extreme values may be limits of the assay
[7] = system: Danio rerio embryo/larva; test: max % larvae with spinal defects across tested concentrations; higher = more toxic; extreme values may be limits of the assay
[8] = system: Danio rerio embryo/larva; test: max % larvae with abnormal position across tested concentrations; higher = more toxic; extreme values may be limits of the assay
[9] = system: Danio rerio embryo/larva; test: max % larvae with craniofacial defects across tested concentrations; higher = more toxic; extreme values may be limits of the assay
[10] = system: Danio rerio embryo/larva; test: max % larvae with uninflated swim bladder across tested concentrations; higher = more toxic; extreme values may be limits of the assay
[11] = system: Danio rerio embryo/larva; test: BMC edema; higher = less potent
Method: as §1

[12] = system: Danio rerio embryo/larva; test: BMC swim bladder non-inflation; higher = less potent
Method: as §1

[13] = system: Danio rerio embryo/larva; test: BMC any abnormality; max tested concentration (log10 uM): 2; higher = less potent
Method: as §1

[14] = system: Danio rerio embryo/larva; test: max % larvae unhatched across tested concentrations; max tested concentration (log10 uM): 2; higher = more toxic
[15] = system: Danio rerio embryo/larva; test: max % larvae dead across tested concentrations; max tested concentration (log10 uM): 2; higher = more toxic; extreme values may be limits of the assay
[16] = system: Danio rerio embryo/larva; test: max % larvae with any abnormality across tested concentrations; max tested concentration (log10 uM): 2; higher = more toxic; extreme values may be limits of the assay
[17] = max tested concentration (log10 uM): 2
[18] = max tested concentration (log10 uM): 0

Row | Structure (SMILES) | BMC general abnormality [1] | max % larvae [2] | max % larvae [3] | max % larvae [4] | max % larvae [5] | max % larvae generally abnormal across tested concentrations [6] | max % larvae [7] | max % larvae [8] | max % larvae [9] | max % larvae [10] | BMC edema [11, 17] | BMC swim bladder non-inflation [12, 17] | BMC any abnormality [13] | max % larvae unhatched across tested concentrations [14] | max % larvae dead across tested concentrations [15] | max % larvae [16] | BMC edema [11, 18] | BMC swim bladder non-inflation [12, 18]
1 | FC(F)(I)C(F)(F)C(F)(F)C(F)(F)C(F)(F)C(F)(F)I [1,6-Diiodoperfluorohexane] (max tested concentration (log10 uM): 2) | 4.24 ± 2.6 µM | 10 ± 14% | 67.5 ± 3.5% | 7.5 ± 11% | 56.7 ± 33% | 95 ± 7.1% | 33.3 ± 18% | 54.6 ± 0.59% | 90% | 100% |  |  |  |  |  |  |  | 
2 | FC(F)(F)C(F)(F)C(F)(F)C(F)(F)C(F)(F)CCI [1-Iodo-1H,1H,2H,2H-perfluoroheptane] (max tested concentration (log10 uM): 2) | 31.4 µM | 0% | 35.7% | 7.14% | 0% | 42.9% | 4.17% | 10.7% | 14.3% | 35.7% |  |  |  |  |  |  |  | 
3 | C=CC(=O)OCC(F)(F)C(F)(F)C(F)(F)C(F)(F)COC(=O)C=C [1H,1H,6H,6H-Perfluorohexane-1,6-diol diacrylate] (max tested concentration (log10 uM): 1) | 7.57 µM | 0% | 25% | 0% | 0% | 25% | 0% | 4.17% | 8.33% | 50% |  |  |  |  |  |  |  | 
4 | OCC(F)(F)C(F)(F)C(F)(F)C(F)(F)C(F)(F)C(F)(F)CO [1H,1H,8H,8H-Perfluorooctane-1,8-diol] (max tested concentration (log10 uM): 2) | 50.1 µM | 0% | 50% | 2.08% | 0% | 52.1% | 8.33% | 8.33% | 25% | 87.5% |  |  |  |  |  |  |  | 
5 | OCC(F)(F)C(F)(F)C(F)(F)C(F)(F)C(F)(F)C(F)(F)C(F)(F)C(F)(F)CO [1H,1H,10H,10H-Perfluorodecane-1,10-diol] (max tested concentration (log10 uM): 1) | 3.79 µM | 0% | 66.7% | 8.33% | 33.3% | 75% | 4.17% | 4.17% | 83.3% | 83.3% |  |  |  |  |  |  |  | 
6 | NCC(F)(F)C(F)(F)C(F)(F)C(F)(F)C(F)(F)C(F)(F)F [1H,1H-Perfluoroheptylamine] (max tested concentration (log10 uM): 2) | 79.2 µM | 0% | 33.3% | 0% | 0% | 33.3% | 0% |  | 0% | 0% |  |  |  |  |  |  |  | 
7 | C=CC(=O)OCCC(F)(F)C(F)(F)C(F)(F)C(F)(F)F [2-(Perfluorobutyl)ethyl acrylate] (max tested concentration (log10 uM): 2) | 74.8 µM | 0% | 0% | 0% | 0% | 50% | 0% | 0% | 0% | 100% |  |  |  |  |  |  |  | 
8 | OCCC(F)(F)C(F)(F)C(F)(F)C(F)(F)C(F)(F)C(F)(F)F [2-(Perfluorohexyl)ethanol] (max tested concentration (log10 uM): 2) | 3.37 µM | 0% | 79.5% | 13.6% | 0% | 79.5% | 6.82% | 11.4% | 68.2% | 81.8% |  |  |  |  |  |  |  | 
9 | O=C(O)CCC(F)(F)C(F)(F)C(F)(F)C(F)(F)C(F)(F)F [2H,2H,3H,3H-Perfluorooctanoic acid] (max tested concentration (log10 uM): 1.47712) | 9.38 µM | 0% | 100% | 25% | 100% | 100% | 12.5% | 25% | 100% | 100% |  |  |  |  |  |  |  | 
10 | O=C(O)CCC(F)(F)C(F)(F)C(F)(F)C(F)(F)C(F)(F)C(F)(F)F [3-(Perfluorohexyl)propanoic acid] (max tested concentration (log10 uM): 1) | 9.01 µM | 0% | 25% | 12.5% | 0% | 25% | 0% | 4.17% | 16.7% | 16.7% |  |  |  |  |  |  |  | 
11 | OCCCC(F)(F)C(F)(F)C(F)(F)C(F)(F)C(F)(F)C(F)(F)C(F)(F)F [7:3 Fluorotelomer alcohol] (max tested concentration (log10 uM): 2) | 44.8 µM | 0% | 19.4% | 0% | 16.7% | 22.2% | 0% | 0% | 11.1% | 22.2% |  |  |  |  |  |  |  | 
12 | O=C(O)C(F)(F)C(F)(F)C(F)(F)C(F)(F)C(F)(F)C(F)(F)C(F)(F)C(F)(F)Cl [9-Chloro-perfluorononanoic acid] (max tested concentration (log10 uM): 2) | 9.23 µM | 0% | 100% | 75% | 41.7% | 100% | 50% | 25% | 100% | 100% |  |  |  |  |  |  |  | 
13 | O=C(O)C(F)(F)C(F)(F)C(F)(F)C(F)(F)C(F)(F)C(F)(F)C(F)(F)C(F)(F)C(F)(F)C(F)F [11-H-Perfluoroundecanoic acid] (max tested concentration (log10 uM): 1.47712) | 12.6 µM | 0% | 100% | 100% | 100% | 100% | 0% | 50% | 100% | 100% |  |  |  |  |  |  |  | 
14 | FC(F)C(F)(F)COCC1CO1 (stereo not given) [((2,2,3,3-Tetrafluoropropoxy)methyl)oxirane] |  |  |  |  |  |  |  |  |  |  | 32.6 µM | 27.7 µM | 26.5 µM | 0% | 0% | 91.7% |  | 
15 | O=P(O)(O)CCC(F)(F)C(F)(F)C(F)(F)C(F)(F)C(F)(F)C(F)(F)C(F)(F)C(F)(F)F [((Perfluorooctyl)ethyl)phosphonic acid] (max tested concentration (log10 uM): 2) | 1.31 µM | 0% | 50% | 5% | 0% | 60% | 0% | 50% | 20% | 100% |  |  |  |  |  |  |  | 
16 | CC(C)(C)C(=O)CC(=O)C(F)(F)C(F)(F)C(F)(F)F [(Heptafluorobutanoyl)pivaloylmethane] (max tested concentration (log10 uM): 2) | 25.6 µM | 0% | 66.7% | 0% | 20% | 66.7% | 0% | 25% | 83.3% | 100% |  |  |  |  |  |  |  | 
17 | CCNS(=O)(=O)C(F)(F)C(F)(F)C(F)(F)C(F)(F)C(F)(F)C(F)(F)C(F)(F)C(F)(F)F [N-Ethylperfluorooctane sulfonamide] (max tested concentration (log10 uM): 1) | 2.91 µM | 0% | 41.7% | 0% | 16.7% | 58.3% | 0% | 8.33% | 8.33% | 83.3% |  |  |  |  |  |  |  | 
18 | CNS(=O)(=O)C(F)(F)C(F)(F)C(F)(F)C(F)(F)C(F)(F)C(F)(F)C(F)(F)C(F)(F)F [N-Methylperfluorooctanesulfonamide] (max tested concentration (log10 uM): 2) | 0.968 µM | 0% | 36.4% | 0% | 0% | 50% | 0% | 8.33% | 18.2% | 90.9% |  |  |  |  |  |  |  | 
19 | FC(F)(I)C(F)(F)C(F)(F)C(F)(F)I [Perfluoro-1,4-diiodobutane] (max tested concentration (log10 uM): 2) | 20.6 µM | 0% | 58.3% | 20.8% | 20% | 58.3% | 16.7% | 16.7% | 50% | 66.7% |  |  |  |  |  |  |  | 
20 | O=C(O)C(F)(F)OC(F)(F)C(F)(F)OC(F)(F)C(F)(F)OC(F)(F)C(F)(F)C(F)(F)C(F)(F)F [Perfluoro-3,6,9-trioxatridecanoic acid] (max tested concentration (log10 uM): 1) | 1.51 µM | 0% | 50% | 0% | 16.7% | 50% | 0% | 50% | 0% | 100% |  |  |  |  |  |  |  | 
21 | O=C(O)C(F)(F)C(F)(F)C(F)(F)C(F)(F)C(F)(F)C(F)(F)C(F)(F)C(F)(F)C(F)(F)F [Perfluorodecanoic acid] (max tested concentration (log10 uM): 1.47712) | 11.2 µM | 0% | 50% | 0% | 0% | 50% | 0% | 0% | 0% | 100% |  |  |  |  |  |  |  | 
22 | NS(=O)(=O)C(F)(F)C(F)(F)C(F)(F)C(F)(F)C(F)(F)C(F)(F)F [Perfluorohexanesulfonamide] (max tested concentration (log10 uM): 0.477121) | 1.66 µM | 0% | 85% | 10% | 0% | 85% | 5% | 30% | 70% | 100% |  |  |  |  |  |  |  | 
23 | O=C(O)C(F)(F)C(F)(F)C(F)(F)C(F)(F)C(F)(F)C(F)(F)C(F)(F)C(F)(F)F [Perfluorononanoic acid] (max tested concentration (log10 uM): 2) | 28 µM | 0% | 75% | 50% | 16.7% | 75% | 25% | 37.5% | 100% | 100% |  |  |  |  |  |  |  | 
24 | O=C(Cl)C(F)(F)C(F)(F)C(F)(F)C(F)(F)C(F)(F)C(F)(F)C(F)(F)C(F)(F)F [Perfluorononanoyl chloride] (max tested concentration (log10 uM): 1.47712) | 13.1 µM | 0% | 16.7% | 0% | 16.7% | 29.2% | 0% | 4.17% | 0% | 50% |  |  |  |  |  |  |  | 
25 | NS(=O)(=O)C(F)(F)C(F)(F)C(F)(F)C(F)(F)C(F)(F)C(F)(F)C(F)(F)C(F)(F)F [Perfluorooctanesulfonamide] |  |  |  |  |  |  |  |  |  |  |  |  | 0.261 µM | 0% |  | 100% | 0.563 µM | 0.313 µM
